Legend:
DU-145 = experiment: NCI 60 cell line screen (SRB), Prostate Cancer; assay type: cell-based; conditions: DU-145 (Prostate Cancer)
[1] = Stability at room temperature; assay type: physicochemical; conditions: crystalline solid
60 cell line panel = conditions: cell line panels consisting of 60 lines; cited from earlier work
[2] = test system: Ehrlich ascites tumor (EAT) cells; conditions: MTT assay, Woerdenbag et al. 1993; cited from earlier work
P. berghei = conditions: P. berghei-infected mice; Klayman 1985; cited from earlier work
P388 leukemia = conditions: NCI Report on NSC 369397; cited from earlier work
[3] = test system: Plasmodium vivax and Plasmodium falciparum; conditions: 2099 cases of malaria, different dosage forms of QHS; 1979 study; cited from earlier work
P. falciparum = conditions: two Hanian strains; Ye et al. 1983; cited from earlier work
[4] = cited from earlier work

COC1OC2(C)CCC3CCCC(CCOC(=O)c4cccc(C(=O)OCCC5CCCC6CCC7(C)OOC56C(OC)O7)c4)C31OO2 (centres unmarked) [Compound 10, Trioxane Bis-ester Dimer]
Log10GI50 (DU-145): −4.53 M | Log10LC50 (DU-145): >−4.30 M | Log10TGI (DU-145): >−4.30 M | stability [1]: stable for prolonged periods at room temperature

CC(=O)O[C@H]1C(=O)[C@@]2(C)[C@H]([C@H](OC(=O)c3ccccc3)[C@]3(O)C[C@H](OC(=O)[C@H](O)[C@@H](NC(=O)c4ccccc4)c4ccccc4)C(C)=C1C3(C)C)[C@]1(OC(C)=O)CO[C@@H]1C[C@@H]2O [Paclitaxel, paclitaxel, reference compound]
Log10GI50 (DU-145): −9.38 M | Log10LC50 (DU-145): >−4.00 M | Log10TGI (DU-145): >−4.00 M

C[C@@H]1CC[C@H]2[C@@H](C)C(=O)O[C@@H]3O[C@@]4(C)CC[C@@H]1[C@]32OO4 [QHS, 3,6,9-trimethyl-9,10b-epidioxyperhydropyrano[4,3,2-jk]benzoxepin-2-one, reference compound]
anticancer activity (60 cell line panel): very little anticancer activity | ID50 / IC50 (drug concentration causing 50% growth inhibition of the tumor cells) [2]: 29.8 µM | SD90 (parasitemia 90 percent suppressed) (P. berghei): 6.20 mg/kg | activity against P388 leukemia (P388 leukemia): inactive | clinical outcome [3]: clinical cure of all patients | potency in vitro compared with chloroquine (P. falciparum): comparable to that of chloroquine | solubility in water [4]: insolubility in water

Source: patent publication USRE38117E1, “Trioxane dimer compound having antiproliferative and antitumor activities” (Hauser, Inc., priority 1995, dated 2003)
